Key:
Mammal complex II = conditions: ref Mogi et al. [34]; read-out: Siccanin IC50, Mammal, Complex II; cited from earlier work
[1] = target: T1, P. falciparum complex III (Plasmodium falciparum, UniProt Q02768); assay: DHO-cytochrome c reductase activity (DHODH coupled to complex III); type: biochemical
T1 construct: used as crude mitochondrial fraction for all enzymatic assays; endogenous in cells; host or cells: P. falciparum 3D7 trophozoite-stage parasites, crude mitochondrial fraction
Method: (§1) A synchronized parasite culture was grown for 64 h and a crude mitochondrial fraction was prepared from trophozoite-stage cells (as confirmed by Giemsa staining). Infected red blood cells were collected by centrifugation at 800× g for 5 min at 4 °C and incubated for 5 min at room temperature with 40 mL of 0.075% (w/v) saponin in AIM buffer (120 mM KCl, 20 mM NaCl, 10 mM PIPES (1,4-piperazinediethanesulfonic acid) buffer [pH 6.7], 1 mM MgCl2, 5 mM glucose). Released parasites were collected by centrifugation at 2780× g for 7 min at 4 °C and washed three times with AIM buffer. P. falciparum was suspended in MSE buffer [225 mM mannitol, 75 mM sucrose, 0.1 mM ethylenediaminetetraacetic acid (EDTA), 3 mM Tris-HCl buffer, pH 7.4] containing 1 mM phenylmethylsulphonyl fluoride, and disrupted by nitrogen cavitation at 1200 psi using a 4639 Cell Disruption Bomb (Parr Instrument Company; Moline, IL, USA). The unbroken cells and cell debris were removed by centrifugation at 800× g for 5 min at 4 °C. The supernatant was centrifuged at 5000× g for 20 min at 4 °C. The resulting pellet was suspended in 200–400 μL MSE buffer and used as crude mitochondrial fraction for all enzymatic assays, as described previously.
(§2) DHO-cyt c activity was measured at 25 °C in 1 mL of the reaction mixture containing 20 μM cytochrome c and 2 mM KCN in 30 mM Tris-HCl buffer, pH 8.0. The reduction of cytochrome c was monitored at 550 nm after initiation of the reaction by addition of 500 μM dihydroorotate. Various concentrations of siccanin (formulated in DMSO) were added to the reaction mixtures before the initiation of the reactions. In all assays, the final concentration of DMSO was fixed at 0.1% (v/v). IC50 values were calculated using Prism® ver.6.01.

[2] = tested on: P. falciparum complex III; assay: as above; type: biochemical; conditions: ratio mammalian / P. falciparum IC50
Method: as §1, §2

P. falciparum 3D7-yDHODH = assay: Growth inhibition of yeast DHODH-expressing strain; type: cell-based; conditions: Plasmodium falciparum, 3D7, read-out: Growth inhibition EC50, 3D7-yDHODH
Method: (§3) P. falciparum 3D7-yDHODH was prepared and maintained as described previously. P. falciparum Dd2, and Dd2-derived mutant strains were kindly provided by David A. Fidock, and maintained at Nagasaki University essentially as described in reference, except without supplementation with WR99210.
(§4) Synchronized ring-form parasites (0.3% parasitemia) were prepared in complete medium containing different concentration of various compounds (at a fixed final DMSO concentration of 0.1% (v/v)) and distributed to 96-well plates at 100 μL/well. After 72 h of incubation, parasite growth was monitored by the previously described lactate dehydrogenase (PfLDH)-based assay method; plates were read using a SpectraMax® Paradigm spectrophotometer (Molecular Devices, Inc.; San Jose, CA, USA). EC50 values were calculated using Prism® ver.6.01 (GraphPad; San Diego, CA, USA). Values are presented as the means of three independent experiments.

HDF cells = assay: Mammalian cell cytotoxicity assay, CCK8, 48 h; type: cell-based; conditions: Homo sapiens
Method: (§5) Human colorectal adenocarcinoma cells (DLD-1) and Human Dermal Fibroblasts (HDF) cells were obtained from Taiho Pharmaceutical Company (Tokyo, Japan). DLD-1 cells were cultured in RPMI 1640 medium supplemented with 10% (v/v) heat-inactivated fetal bovine serum (FBS) (Gibco; San Diego, CA, USA); HDF cells were cultured in DMEM/F12 medium supplemented with 10% (v/v) heat-inactivated FBS. For both lines, cells were grown under 5% CO2 at 37 °C in an ACI-165D CO2 incubator (ASTEC; Fukuoka, Japan).
(§6) DLD-1 and HDF cells, (2.5 × 10^4 cells/mL) in 96-well plates, were cultured for 24 h. The cells then were washed with phosphate-buffered saline (PBS) and the medium was replaced with fresh medium supplemented with 10% (v/v) FBS. Medium containing siccanin at various concentrations was added to the wells and the cells were cultured for another 48 h. Controls were treated with medium containing 1% (v/v) DMSO and 10% (v/v) FBS. Next, the cells were washed with PBS and the medium was replaced with fresh medium supplemented with 10% (v/v) FBS. An aliquot (10 µL) of CCK8 solution (Cell Counting Kit-8; Dojindo Laboratories; Kumamoto, Japan) was added to each well and the plates were incubated for another 2 h, at which point absorbance at 450 nm was monitored using a SpectraMax® Paradigm spectrophotometer. The EC50 values were calculated using Prism® ver.6.01. The selectivity was calculated as the ratio between DLD-1 or HDF versus P. falciparum IC50s.

DLD-1 cells = assay: Mammalian cell cytotoxicity assay, CCK8, 48 h; type: cell-based; conditions: Homo sapiens
Method: as §5, §6

[3] = tested on: Dd2_ELQ300 (cyt b-I22L mutation at Qi site); assay: Growth inhibition of Dd2_ELQ300 (ELQ300-resistant); type: cell-based; conditions: Plasmodium falciparum, read-out: Growth inhibition EC50, ELQ300
Method: as §3, §4

T1 sequence (Q02768 whole entry, one chain of several): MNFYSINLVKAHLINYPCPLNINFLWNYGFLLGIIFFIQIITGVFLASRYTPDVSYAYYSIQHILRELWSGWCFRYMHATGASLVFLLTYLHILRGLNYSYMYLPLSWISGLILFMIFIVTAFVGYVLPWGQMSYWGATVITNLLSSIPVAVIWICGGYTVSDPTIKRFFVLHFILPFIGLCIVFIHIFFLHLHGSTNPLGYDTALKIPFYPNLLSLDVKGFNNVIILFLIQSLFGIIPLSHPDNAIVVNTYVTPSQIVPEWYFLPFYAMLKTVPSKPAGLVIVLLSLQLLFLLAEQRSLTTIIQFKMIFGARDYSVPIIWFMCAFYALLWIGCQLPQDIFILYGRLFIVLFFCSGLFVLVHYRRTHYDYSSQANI

## Cc1cc(O)c2c(c1)O[C@@]1(C)CC[C@H]3C(C)(C)CCC[C@]34CO[C@@H]2[C@H]41 [Siccanin]
Mammal complex II
  IC50: 861 µM
[1]; 60 μM
  Effect on DHO-cyt c activity: completely inhibits
[1]; P. falciparum crude mitochondrial fraction, read-out: Complex III (DHO-cyt c activity) IC50
  IC50: 8.39 µM
[2]
  Selectivity, Complex III: >60
P. falciparum 3D7-yDHODH
  EC50: 10.3 µM
HDF cells; HDF, 48 h, read-out: 50% effective concentration (EC50), growth of HDF cells
  EC50: 16.1 ± 1.21 µM
HDF cells; HDF cells, read-out: Siccanin IC50, Mammal, Growth
  IC50: 16.1 µM
DLD-1 cells; DLD-1, 48 h, read-out: 50% effective concentration (EC50), growth of DLD-1 cells
  EC50: 34.2 ± 2.73 µM
DLD-1 cells; DLD-1 cells, read-out: Siccanin IC50, Mammal, Growth
  IC50: 34.2 µM
[3]
  EC50: 18.7 µM
